In patent US20230255970A1, “COMPOSITIONS AND METHODS FOR TREATING PROLIFERATIVE DISEASES” (The Broad Institute, Inc., priority 2020, published 2023):

Tests used:
YAP1 [1] = assay: Western blot of phospho-YAP1 (S127) in H9 cells; type: cell-based, human; details: 24 hrs
Procedure: H9 hPSCs (WiCell) were maintained on vitronectin (Thermo Fisher)-coated plates in Essential 8 (E8) medium. The cells were routinely passaged using 0.5 mM EDTA and treated with 5 μM Y-27632 dihydrochloride (Tocris) on the first day. For testing the effects of the small molecules, H9 hPSCs were seeded at 50K cells/cm^2 on vitronectin-coated plates in E8 medium supplemented with 5 μM Y-27632 dihydrochloride (day 0). On day 1, the medium was switched to E8 medium. On day 2, the medium was switched to E8 medium supplemented with the small molecules. Following overnight incubation, the cells were collected for subsequent analysis on day 3.
YAP1-related Western blotting: The cells were lysed in RIPA buffer (Pierce) supplemented with Halt Protease inhibitor cocktail and Halt Phosphatase inhibitor cocktail. Cells were lysed in hot Tris-SDS buffer (pH 7.6) and boiled for 5 minutes at 95° C. The protein concentration of each sample was quantified using the Pierce BCA protein assay (Thermo Fisher). The proteins were resolved by SDS-PAGE and transferred to PVDF membranes using the Trans-Blot Turbo Transfer system (Bio-Rad). The membranes were blocked in 5% non-fat milk in TBS-T for up to 1 hour at room temperature and incubated with primary antibodies in 5% bovine serum albumin in TBS-T overnight at 4° C. […]

KP230 cells = assay: RNA sequencing and gene set enrichment analysis in KP230 cells; type: cell-based, mouse; details: 10 μM daily for 72 hours
Text: (§1) YAP1 cell culture and treatments: Eisinger lab: Murine KP230 cells, a Yap1-dependent cancer cell line, were derived from a tumor from the KP mouse model (Kras^G12/D; Trp53^f/fl), as described in Eisinger-Mathason, T. S. K. et al., Proc. Natl. Acad. Sci. U.S.A 112 (2015): E3402-11, which is hereby incorporated by reference in its entirety. STS-109 UPS cells were derived from a human UPS tumor and validated by Rebecca Gladdy, MD (Sinai Health System, Toronto, Ontario, Canada). TC32 cells were a gift from Patrick Grohar, MD, PhD (Children's Hospital of Philadelphia). HT-1080, HCT-116, and HEK293T cells were purchased from ATCC. KP230, HT-1080, and HEK-293T cells were grown in DMEM with 10% FBS, 1% L-glutamine, and 1% penicillin/streptomycin (P/S). STS-109 cells were cultured in DMEM with 20% FBS, 1% L-glutamine, and 1% P/S. TC32 cells were grown in RPMI with 10% FBS, 1% L-glutamine, and 1% P/S. HCT-116 cells were cultured in McCoy's 5A medium with 10% FBS and 1% P/S. All cells were confirmed to be negative for mycoplasma contamination and were maintained in an incubator at 37C with 5% CO2. For experimental purposes, cells were cultured for up to 20 passages before being discarded, and were grown to approximately 50% confluence to circumvent the effects of high cell density on Yap1 expression and activity. […]

Yap1 [2] = assay: Yap1 protein levels in KP230 cells (western blot, immunofluorescence); type: cell-based, mouse; details: 72 hours
Text: as §1, with “CO2.” for “CO2. For experimental purposes, cells were cultured for up to 20 passages before being discarded, and were grown to approximately 50% confluence to circumvent the effects of high cell density on Yap1 expression and activity.”
YAP1-related Western blotting: The cells were lysed in RIPA buffer (Pierce) supplemented with Halt Protease inhibitor cocktail and Halt Phosphatase inhibitor cocktail. […] The protein concentration of each sample was quantified using the Pierce BCA protein assay (Thermo Fisher). […]

c1ccc(CNc2ncnc3ccccc23)cc1 [BRD-K43796186, N-benzylquinazolin-4-amine]
YAP1 S127 phosphorylation (YAP1 [1]): decreased YAP1 S127 phosphorylation | pathways down-regulated (GSEA) (KP230 cells): epithelial-mesenchymal transition, angiogenesis, and glycolysis | pathways up-regulated (GSEA) (KP230 cells): interferon alpha and gamma responses | Yap1 protein levels (Yap1 [2]): reduced
